Experimental data published in US7605227B2, “Melanoma antigen peptide analogues” (MannKind Corporation, priority 2005, dated 2009).
Entries after “also recorded” stand apart in the source; their conditions may differ. Square brackets hold non-standard residues; d marks the D form. Ends that are not written are not given here. Peptide text beside a SMILES is read from it. Phe(4-F) = N[C@@H](Cc1ccc(F)cc1)C(=O)O

System: T cell lines against a natural (non-mutated) epitope (SSX-241-49)
Assay: Cross-reactivity and functional avidity: IFN-gamma from T cell lines against natural SSX-2 41-49 epitope;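 further: peptide analogs tested ex vivo with competent APCs, IFN-gamma in supernatant measured by ELISA, readouts include minimal triggering concentration, peak effect and concentration at peak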
Format: cell-based, HHD transgenic mice
Settings: for Cross-reactivity and fct avidity (native to analogs)*: IFN-gamma from T cell line raised against native SSX-2 41-49, native = 1, lower = more active

KLSEKIFYV [SSX2 41-49-NH2 (A42L)]
Cross-reactivity and fct avidity (native to analogs)*: 3

K(D-Val)SEKIFYV [SSX2 41-49 (A42(D-Val))]
Cross-reactivity and fct avidity (native to analogs)*: 3

CCCC[C@H](NC(=O)[C@@H](N)CCCCN)C(=O)N[C@@H](CO)C(=O)N[C@@H](CCC(=O)O)C(=O)N[C@@H](CCCCN)C(=O)N[C@H](C(=O)N[C@@H](Cc1ccccc1)C(=O)N[C@@H](Cc1ccc(O)cc1)C(=O)N[C@H](C(=O)O)C(C)C)[C@@H](C)CC [SSX2 41-49 (A42(Nle)), KNleSEKIFYV]
Cross-reactivity and fct avidity (native to analogs)*: 0.1

FVSEKIFY(Aib) [SSX2 41-49 (K41F, A42V, V49Aib)]
Cross-reactivity and fct avidity (native to analogs)*: >10

CC[C@H](C)[C@H](NC(=O)[C@H](CCCCN)NC(=O)[C@H](CCC(=O)O)NC(=O)[C@H](CO)NC(=O)[C@@H](NC(=O)[C@@H](N)Cc1ccccc1)C(C)C)C(=O)N[C@@H](Cc1ccccc1)C(=O)N[C@@H](Cc1ccc(O)cc1)C(=O)N(C)[C@H](C(=O)O)C(C)C [SSX2 41-49 (K41F, A42V, V49MeVal)]
Cross-reactivity and fct avidity (native to analogs)*: 10

CC[C@H](NC(=O)[C@@H](N)CCCCN)C(=O)N[C@@H](CO)C(=O)N[C@@H](CCC(=O)O)C(=O)N[C@@H](CCCCN)C(=O)N[C@H](C(=O)N[C@@H](Cc1ccccc1)C(=O)N[C@@H](Cc1ccc(O)cc1)C(=O)N[C@H](C(=O)O)C(C)C)[C@@H](C)CC [SSX2 41-49 (A42(Abu)), KAbuSEKIFYV]
Cross-reactivity and fct avidity (native to analogs)*: 0.3

KVSEKIFYV [SSX2 41-49-NH2 (A42V)]
Cross-reactivity and fct avidity (native to analogs)*: 10

FVSEKLFTA
Cross-reactivity and fct avidity (native to analogs)*: >10

CC[C@H](C)[C@H](NC(=O)[C@H](CCCCN)NC(=O)[C@H](CCC(=O)O)NC(=O)[C@H](CO)NC(=O)[C@H](CC(C)C)NC(=O)[C@@H](N)CCCCN)C(=O)N[C@@H](Cc1ccccc1)C(=O)N[C@@H](Cc1ccc(O)cc1)C(=O)N[C@H](C(=O)O)C(C)C [SSX2 41-49 (A42L)]
Cross-reactivity and fct avidity (native to analogs)*: 0.03

CCCC[C@H](NC(=O)[C@H](Cc1ccc(O)cc1)NC(=O)[C@H](Cc1ccccc1)NC(=O)[C@@H](NC(=O)[C@H](CCCCN)NC(=O)[C@H](CCC(=O)O)NC(=O)[C@H](CO)NC(=O)[C@@H](NC(=O)[C@@H](N)Cc1ccccc1)C(C)C)[C@@H](C)CC)C(=O)O [SSX2 41-49 (K41F, A42V, V49Nle)]
Cross-reactivity and fct avidity (native to analogs)*: >10

CC[C@H](C)[C@H](NC(=O)[C@H](CCCCN)NC(=O)[C@H](CCC(=O)O)NC(=O)[C@H](CO)NC(=O)[C@H](C)NC(=O)[C@@H](N)Cc1ccc(F)cc1)C(=O)N[C@@H](Cc1ccccc1)C(=O)N[C@@H](Cc1ccc(O)cc1)C(=O)N[C@H](C(=O)O)C(C)C [SSX2 41-49 (K41(Phe-4F))] (H-[Phe(4-F)]ASEKIFYV-OH)
Cross-reactivity and fct avidity (native to analogs)*: 3

KASEKIFYV [SSX2 41-49-NH2]
Cross-reactivity and fct avidity (native to analogs)*: >10

CC[C@H](C)[C@H](NC(=O)[C@H](CCCCN)NC(=O)[C@H](CCC(=O)O)NC(=O)[C@H](CO)NC(=O)[C@H](Cc1ccc2ccccc2c1)NC(=O)[C@@H](N)CCCCN)C(=O)N[C@@H](Cc1ccccc1)C(=O)N[C@@H](Cc1ccc(O)cc1)C(=O)N[C@H](C(=O)O)C(C)C [SSX2 41-49 (A42(Nal-2)), KNal-2SEKIFYV]
Cross-reactivity and fct avidity (native to analogs)*: 3

CC[C@H](NC(=O)[C@H](Cc1ccc(O)cc1)NC(=O)[C@H](Cc1ccccc1)NC(=O)[C@@H](NC(=O)[C@H](CCCCN)NC(=O)[C@H](CCC(=O)O)NC(=O)[C@H](CO)NC(=O)[C@@H](NC(=O)[C@@H](N)Cc1ccccc1)C(C)C)[C@@H](C)CC)C(=O)O [SSX2 41-49 (K41F, A42V, V49Abu)]
Cross-reactivity and fct avidity (native to analogs)*: 1

CCC[C@H](NC(=O)[C@@H](N)CCCCN)C(=O)N[C@@H](CO)C(=O)N[C@@H](CCC(=O)O)C(=O)N[C@@H](CCCCN)C(=O)N[C@H](C(=O)N[C@@H](Cc1ccccc1)C(=O)N[C@@H](Cc1ccc(O)cc1)C(=O)N[C@H](C(=O)O)C(C)C)[C@@H](C)CC [SSX2 41-49 (A42(Nva)), KNvaSEKIFYV]
Cross-reactivity and fct avidity (native to analogs)*: 0.1

CC[C@H](C)[C@H](NC(=O)[C@H](CCCCN)NC(=O)[C@H](CCC(=O)O)NC(=O)[C@H](CO)NC(=O)[C@H](CC(C)C)NC(=O)[C@@H](N)Cc1ccccc1)C(=O)N[C@@H](Cc1ccccc1)C(=O)N[C@@H](Cc1ccc(O)cc1)C(=O)N[C@H](C(=O)O)C(C)C [SSX2 41-49 (K41F, A42L)]
Cross-reactivity and fct avidity (native to analogs)*: 0.3

KASEKIFYVY [SSX-241-50, wild-type SSX-2 41-50 decamer peptide, reference compound]
cross-reactivity / IFN-gamma inducing activity relative to wild-type, in words (SSX-2 41-49 analogs, wild-type specific T cells): significantly less active; also recorded: no immunological activity

CC[C@H](C)[C@H](NC(=O)[C@H](CCCCN)NC(=O)[C@H](CCC(=O)O)NC(=O)[C@H](CO)NC(=O)[C@@H](NC(=O)[C@@H](N)Cc1c[nH]c2ccccc12)[C@@H](C)CC)C(=O)N[C@@H](Cc1ccccc1)C(=O)N[C@@H](Cc1ccc(O)cc1)C(=O)N[C@H](C(=O)O)C(C)C [SSX2 41-49 (K41W, A42I)]
Cross-reactivity and fct avidity (native to analogs)*: 0.1

CC[C@H](C)[C@H](NC(=O)[C@H](CCCCN)NC(=O)[C@H](CO)NC(=O)[C@H](CO)NC(=O)[C@@H](NC(=O)[C@@H](N)Cc1ccccc1)C(C)C)C(=O)N[C@@H](Cc1ccccc1)C(=O)N[C@@H](Cc1ccc(O)cc1)C(=O)N[C@H](C(=O)O)C(C)C [SSX2 41-49 (K41F, A42V, E44S)]
Cross-reactivity and fct avidity (native to analogs)*: >10

CC[C@H](C)[C@H](NC(=O)[C@H](CCCCN)NC(=O)[C@H](CCC(=O)O)NC(=O)[C@H](CO)NC(=O)[C@H](C)NC(=O)[C@@H](N)Cc1c[nH]c2ccccc12)C(=O)N[C@@H](Cc1ccccc1)C(=O)N[C@@H](Cc1ccc(O)cc1)C(=O)N[C@H](C(=O)O)C(C)C [SSX2 41-49 (K41W)]
Cross-reactivity and fct avidity (native to analogs)*: >10

CC[C@H](C)[C@H](NC(=O)[C@H](CCCCN)NC(=O)[C@H](CCC(=O)O)NC(=O)[C@H](CO)NC(=O)[C@@H](NC(=O)[C@@H](N)Cc1ccccc1)C(C)C)C(=O)N[C@@H](Cc1ccccc1)C(=O)N[C@@H](Cc1ccc(O)cc1)C(=O)N[C@@H](CC(C)C)C(=O)O [SSX2 41-49 (K41F, A42V, V49L)]
Cross-reactivity and fct avidity (native to analogs)*: >10

CC[C@H](C)[C@H](NC(=O)[C@H](CCCCN)NC(=O)[C@H](CCC(=O)O)NC(=O)[C@H](CO)NC(=O)[C@H](CC(C)C)NC(=O)[C@H](N)CCCCN)C(=O)N[C@@H](Cc1ccccc1)C(=O)N[C@@H](Cc1ccc(O)cc1)C(=O)N[C@H](C(=O)O)C(C)C [SSX2 41-49 (K41(D-Lys), A42L)]
Cross-reactivity and fct avidity (native to analogs)*: 10

FVSEKMFYV [SSX2 41-49 (K41F, A42V, I46M)]
Cross-reactivity and fct avidity (native to analogs)*: >10

CC[C@H](C)[C@H](NC(=O)[C@H](CCCCN)NC(=O)[C@H](CCC(=O)O)NC(=O)[C@H](CO)NC(=O)[C@H](CCSC)NC(=O)[C@@H](N)Cc1ccccc1)C(=O)N[C@@H](Cc1ccccc1)C(=O)N[C@@H](Cc1ccc(O)cc1)C(=O)N[C@H](C(=O)O)C(C)C [SSX2 41-49 (K41F, A42M)]
Cross-reactivity and fct avidity (native to analogs)*: 3

KVSEKIFYI [SSX2 41-49 (A42V, V491)]
Cross-reactivity and fct avidity (native to analogs)*: 0.3

CC[C@H](C)[C@H](NC(=O)[C@H](CCCCN)NC(=O)[C@H](CCC(=O)O)NC(=O)[C@H](CO)NC(=O)[C@@H](NC(=O)[C@H](N)CCCCN)C(C)C)C(=O)N[C@@H](Cc1ccccc1)C(=O)N[C@@H](Cc1ccc(O)cc1)C(=O)N[C@H](C(=O)O)C(C)C [SSX2 41-49 (K41(D-Lys), A42V)]
Cross-reactivity and fct avidity (native to analogs)*: 10
